{"source": "patent US20040127567A1", "about": "“Novel methods for treating disorders in which docosahexaenoic acid (DHA) levels are affected” (Beth Israel Deaconess Medical Center, Inc., priority 1998, published 2004)", "assay_type_in_all_cases": "in vivo, mouse", "key": {"CFTR−/− mice [1]": {"test_system": "CFTR−/− mice", "assay": "Pancreatic morphology / luminal diameter in CFTR−/− mice", "details": "for Effect on pancreas morphology (in words): 40 mg/day for one week (fish oil: dose equivalent to 40 mg DHA, 60 mg EPA, 15 mg LNA), vs Peptamen alone", "description": "CF and WT mice were fed as outlined in the method section above. Dilation of the pancreatic duct lumen is a hallmark feature of cystic fibrosis. Therefore, the luminal area was measured from a minimum of 30 images from CF knockout mice treated with Peptamen™ alone or Peptamen™ plus 40 mg/day of DHA as well as wild type (WT) mice treated with Peptamen™ alone beginning at the time of weaning. Animals were sacrificed at 37 days of age and each pancreas fixed in glutaraldehyde. Analysis was performed using NIH Image software. The results are outlined in FIG. 1. […] No other treatment to date has shown tissue improvements at a morphological level.\n(§1) The morphology of various organs were also studied. Sample preparation were carried out as follows: 1-2 cm of ileum adjacent to the cecum was fixed in formalin, embedded in paraffin, cut in cross-section, and stained with hematoxylin/eosin. For pancreatic analyses, 2-3 mm pieces of pancreas were fixed for 1.5 h in 2% glutaraldehyde in 0.2M cacodylate buffer. Tissue samples were then washed in 0.2M cacodylate buffer and subsequently postfixed for 1 h in 1% osmium tetroxide in 0.1 M cacodylate buffer. Tissue was embedded in epon and thick sections stained with 1% toluidine blue.\n(§2) Morphometry: For measurement of ileal villus height or pancreatic luminal diameter, multiple images were randomly taken at 200× using a Nikon Microphot-SA microscope equipped with a Diagnostic Instruments, Inc., Spot Digitizing System. Images were examined in a blinded fashion by two independent observers. Quantitation was performed using NIH Imaging Software. The differences between the means in the groups tested were evaluated using the Student's t-test.\nTissue samples from these mice were prepared for light microscopy and sections analyzed at 200×. Pancreatic acinar cell morphology of CFTR−/− control mice is characterized by massive luminal dilatation and zymogen granule accumulation at the apical pole of the acinar cells (data not shown), two hallmark features of cystic fibrosis pathology (W. V. L. Go. (1993) Pancreas: Biology, Pathobiology, and Disease, Chapter 54:1041-1081). […] Luminal diameter is approximately 9fold greater in CFTR−/− mice. […] There also appeared to be a decrease in ductal plugs DGA-fed CFTR−/− mice; however, this observation was not subjected to morphometric analysis.\nAdditional experiments were performed to observe the effect of administering the DHA precursor docosapentaenoic acid (DPA,22:5n-3) on DHA levels. Wild-type and CFTR−/− mice were fed with 40 mg of DPA per day for 7 days and fatty acids in pancreas and lung analyzed by GC/MS. One to 2 mm pieces of pancreas from both wild-type and CFTR−/−were fixed for 1.5 h in […] in 0.2M cacodylate buffer and processed for morphometric analysis."}, "wild-type pregnant mice": {"test_system": "wild-type pregnant mice", "assay": "DHA administration to wild-type pregnant mice: fetal lung surfactant (DPPC), fetal lung and brain DHA", "source_text": "The invention also provides a method for improving the amount of fetal lung surfactant in a mouse model. It appears that this is accomplished by upregulating fetal lung surfactant biosynthesis during pregnancy. This method again utilizes giving high doses of DHA which increases DHA and fetal surfactant levels in the fetal lung. Gestation in mice lasts about 19.5 days and previous reports have shown that surfactant levels in amniotic fluid are not detected until after day 16.5, equivalent to about 30 to 32 weeks gestational age in humans. Wild-type C57 mice were bred and identification of the cervical plug was used to determine the occurrence of pregnancy and gestational age. Beginning on day 9.5 of pregnancy (equivalent to about 24 weeks of gestational age in humans), mice were placed on Peptamen™ ±DHA for one week at different doses and sacrificed on day 16.5. Following sacrifice, amniotic fluid was aspirated from the amniotic sacs, and DPPC concentration determined by micro-HPTLC. In a different set of experiments, fetal lung and brain were removed, homogenized, lipids extracted with chloroform-methanol, and fatty acids transmethylated and analyzed by gas chromatography."}, "wild-type mice [2]": {"test_system": "wild-type mice", "assay": "DHA and AA levels in plasma, red blood cells and pancreas following DHA therapy", "details": "40 mg DHA/day", "description": "In this Example, levels of DHA and AA in various blood components following administration of 40 mg DHA/day to mice was determined. In particular, 40 mg DHA was given to wild type mice and levels of DHA (Table 11) and AA (Table 12) were measured in plasma, red blood cells (RBC), and the pancreas. […] Accordingly, either plasma or red blood cell levels of DHA and AA (and their ratios) can be used as a diagnostic or to determine the effectiveness of treatment in the pancreas and other affected organs."}, "[3]": {"assay": "Tolerability observations in mice given DHA"}, "CFTR−/− mice [4]": {"test_system": "CFTR−/− mice", "assay": "Fatty acid levels (GC/MS) in pancreas and lung cells of CFTR−/− mice fed n-3 fatty acids", "details": "for AA level in pancreas: CFTR-/- mice, 40 mg/day for one week (fish oil: dose equivalent to 40 mg DHA, 60 mg EPA, 15 mg LNA), mean ± S.D."}, "CFTR−/− mice [5]": {"test_system": "CFTR−/− mice", "assay": "Ileal villus height in CFTR−/− mice", "details": "40 mg/day", "description": "CF and WT mice were fed as outlined in the method section above. Ileal height, i.e., the villi height in the ileum, was measured in CF knockout animals treated with either Peptamen™ alone, Peptamen™ +40 mg per day DHA, or Wild Type (WT) animals treated with Peptamen™ alone. Animals were sacrificed at 50 days of age, ileum fixed in paraformaldehyde, and the height measured on micrographs at 100×. […] The results are outlined in FIG. 2. […] Statistically significant differences (p<0.005) were found between wild-type and CF mice as well as between CF+40 mg DHA/day and CF. There was no statistically significant difference between WT and CF+40 mg DHA/day. […]\nas §2, with “Images were examined in a blinded fashion by two independent observers.” left out\nThus, the morphologic and morphometric studies utilized with the pancreas were also performed on the ileum. Tissue from the wild type and CFTR−/− mice was prepared for light microscopy and sections analyzed at 200×. […] Morphometric analysis is shown in FIG. 8, the villous height was quantitated using NIH image software and expressed as mean […]±S.D. (n=6). […]"}, "wild-type mice [6]": {"test_system": "wild-type mice", "assay": "Pancreas and ileum morphology in wild-type mice", "details": "40 mg/day for one week", "description": "as §1, §2"}, "[7]": {"details": "day 16.5, 20 mg/day DHA to the pregnant mouse from day 9.5"}, "[8]": {"details": "CFTR (-/-) mice, 40 mg DPA per day for 7 days"}}, "note": "Entries after “also recorded” stand apart in the source; their conditions may differ.", "data": [{"molecule": "CC/C=C\\C/C=C\\C/C=C\\C/C=C\\C/C=C\\C/C=C\\CCC(=O)O", "note": "[DHA, docosahexaenoic acid]", "values": [{"measurement": "Decrease in pancreatic luminal diameter", "setting": "CFTR−/− mice [1]; oral 40 mg/day for 7 days, p<0.0001, n=6", "result": 63, "unit": "%"}, {"measurement": "DHA in fetal brain (in words)", "setting": "wild-type pregnant mice; 10 or 20 mg DHA/day to preterm wild-type pregnant mice", "result": "significant increase in DHA in fetal brain"}, {"measurement": "DPPC concentration in amniotic fluid", "setting": "wild-type pregnant mice; day 16.5, 5 mg/day DHA from day 9.5", "result": "9.3 ± 2.6", "unit": "µg/mL"}, {"measurement": "DHA concentration in fetal brain", "setting": "wild-type pregnant mice; day 16.5, 10 mg/day DHA to the pregnant mouse from day 9.5", "result": "15.6 ± 1.1", "unit": "nmoles/mg protein"}, {"measurement": "DPPC concentration in amniotic fluid", "setting": "wild-type pregnant mice; day 16.5, 20 mg/day DHA from day 9.5", "result": "18.0 ± 3.6", "unit": "µg/mL"}, {"measurement": "DHA concentration in fetal brain", "setting": "wild-type pregnant mice; [7]", "result": "28.9 ± 1.9", "unit": "nmoles/mg protein"}, {"measurement": "DHA concentration in fetal lung", "setting": "wild-type pregnant mice; [7]", "result": "29.8 ± 5.5", "unit": "nmoles/mg protein"}, {"measurement": "Placental transfer", "setting": "wild-type pregnant mice; pregnant mice", "result": "readily crosses the placenta"}, {"measurement": "Phospholipid-bound AA level in RBC", "setting": "wild-type mice [2]; day 2", "result": 10.1, "unit": "nmoles/100 million cells"}, {"measurement": "Phospholipid-bound AA level in pancreas", "setting": "wild-type mice [2]; day 2", "result": 262, "unit": "nmoles per total extract"}, {"measurement": "Phospholipid-bound AA level in plasma", "setting": "wild-type mice [2]; day 2", "result": 227, "unit": "µg/mL"}, {"measurement": "Phospholipid-bound DHA level in pancreas", "setting": "wild-type mice [2]; day 2", "result": 67.8, "unit": "nmoles per total extract"}, {"measurement": "Phospholipid-bound AA level in RBC", "setting": "wild-type mice [2]; day 4", "result": 6.2, "unit": "nmoles/100 million cells"}, {"measurement": "Phospholipid-bound AA level in pancreas", "setting": "wild-type mice [2]; day 4", "result": 139, "unit": "nmoles per total extract"}, {"measurement": "Phospholipid-bound AA level in plasma", "setting": "wild-type mice [2]; day 4", "result": 123, "unit": "µg/mL"}, {"measurement": "Phospholipid-bound DHA level in pancreas", "setting": "wild-type mice [2]; day 4", "result": 101.0, "unit": "nmoles per total extract"}, {"measurement": "Phospholipid-bound AA level in RBC", "setting": "wild-type mice [2]; day 7", "result": 3.7, "unit": "nmoles/100 million cells"}, {"measurement": "Phospholipid-bound AA level in pancreas", "setting": "wild-type mice [2]; day 7", "result": 104, "unit": "nmoles per total extract"}, {"measurement": "Phospholipid-bound AA level in plasma", "setting": "wild-type mice [2]; day 7", "result": 84, "unit": "µg/mL"}, {"measurement": "Phospholipid-bound DHA level in pancreas", "setting": "wild-type mice [2]; day 7", "result": 125, "unit": "nmoles per total extract"}, {"measurement": "Diarrhea", "setting": "[3]; CFTR−/− or wild-type mice, 40 mg per day of DHA", "result": "No overt diarrhea"}, {"measurement": "Side effects", "setting": "[3]; treated pregnant mice and their newborns, monitored for up to one month", "result": "no obvious long-term side effects; also recorded: no observed side effects"}, {"measurement": "AA level in pancreas", "setting": "CFTR−/− mice [4]", "result": "4.9 ± 1.8", "unit": "nmol/mg"}]}, {"molecule": "CC/C=C\\C/C=C\\C/C=C\\C/C=C\\C/C=C\\CCCCCC(=O)O", "note": "[DPA, docosapentaenoic acid]", "values": [{"measurement": "Improvement in pancreas morphology (pancreatic ductal diameter, presence of plugs)", "setting": "CFTR−/− mice [1]; 40 mg per day for 7 days", "result": 20, "unit": "%"}, {"measurement": "20:5n-3 in pancreas", "setting": "CFTR−/− mice [4]; [8]", "result": "14.6 ± 1.1 (0.1) nmoles of fatty acid per mg of protein"}, {"measurement": "22:6n-3 in pancreas", "setting": "CFTR−/− mice [4]; [8]", "result": "2.0 ± 0.4(1.5) nmoles of fatty acid per mg of protein"}, {"measurement": "AA level in pancreas", "setting": "CFTR−/− mice [4]", "result": "5.1 ± 0.6", "unit": "nmol/mg"}]}, {"molecule": "CC/C=C\\C/C=C\\C/C=C\\CCCCCCCC(=O)O", "note": "[LNA, α-linolenic acid, reference compound]", "values": [{"measurement": "Effect on pancreas morphology (in words)", "setting": "CFTR−/− mice [1]", "result": "significant increase in acinar lumen dilatation and plug formation; also recorded: significant increase in ductal dilatation; also recorded: increased acinar lumen dilation and plug formation"}, {"measurement": "Effect on pancreas morphology (in words)", "setting": "CFTR−/− mice [1]; listed as 18:3n-3", "result": "worsening of the pathological changes in the pancreas"}, {"measurement": "Effect on ileal/intestinal villus height (in words)", "setting": "CFTR−/− mice [5]", "result": "increased intestinal villi height"}, {"measurement": "Effect on pancreas morphology (in words)", "setting": "wild-type mice [6]", "result": "did not produce and observable effects on pancreas morphology"}, {"measurement": "Effect on pancreas morphology (in words)", "setting": "wild-type mice [6]; listed as 18:3n-3", "result": "did not produce any observable effects on pancreas morphology"}, {"measurement": "AA level in pancreas", "setting": "CFTR−/− mice [4]", "result": "5.5 ± 0.8", "unit": "nmol/mg"}]}]}
